The text below walks through data of US11414454B2, “Compositions, methods, and systems for affinity-based protein identification and purification” (Auctus Biologies, Inc., priority 2017, dated 2022).

No end group written: not given here.

The subject of test [1] is RPtag(large). The experiment in a line: pH profile of Kd by fluorescence anisotropy. As to conditions: buffers pH 1.5 to 13. In kind it is binding, Thermoanaerobacter tengcongensis. The method, then: The Kds of Nd8,Cd4 for RPtag(large) was measured in the presence of buffers of different pHs ranging from 1.5 to 13.
For these experiments, Kds were measured by fluorescence anisotropy as described above in the following buffers, all at 100 mM with 0.005% Tween 20: glycine pH 1.5, glycine pH 2.0, glycine pH 3.0, acetate pH 4.5, 2-(N-morpholino)ethanesulfonic acid pH 6.0, tris pH 7.0, tris pH 7.5, tris pH 8.0, tris pH 8.5, borate pH 10.0, phosphate pH 11.5, phosphate pH 13.0.

Test [2] has as its system immobilized RPtag(large) column. Nature of the test: Native elution from immobilized RPtag(large) column (3 M NaCl binding, 3 M imidazole elution). Further details: species or system Thermoanaerobacter tengcongensis. As to conditions: bound in 100 mM Tris pH 8.0, 3 M NaCl, 0.005% Tween20. An excerpt:
Because of the observed stabilizing character of NaCl and destabilizing character of imidazole on Nd8Cd4 binding, these reagents, among others, were incorporated into a novel buffering system for use with the disclosed proteins, peptides, systems, and methods. In particular, the effect of this novel buffer on binding of RPtag (small) Nd8Cd4 to an immobilized RPtag(large) column was studied. These experiments included eluting both (1) rhodamine labeled peptide and (2) N-terminally RPtag(small) Nd8Cd4 tagged with tagRFP from a column under native conditions. Generally, native conditions is taken to mean at or near biological conditions under which many proteins are folded, e.g. pH 4-9 at moderate temperature (4° C.-30° C.) in the absence of denaturants (e.g. guanidine hydrochloride, urea, SDS). This is in contrast to denaturing conditions, which generally rely on extreme pH (e.g. ≤2) denaturants, or high temperature to unfold proteins.
Briefly, columns, as described above, were first equilibrated with 10 mL 100 mM Tris pH 8.0, 3 M NaCl, 0.005% Tween20. Next, 1 mL of 10 uM rhodamine-tagged Nd8Cd4 or tagRFP containing an N-terminal RPtag (small) Nd8Cd4 tag was applied in the same buffer. The column was then washed with 10 mL of the same buffer. Finally, bound target molecules were eluted with 10 mL of 100 mM Tris pH 8.0, 3 M imidazole, 0.005% Tween20.

Test [3] concerns RPtag large with rhodamine labeled PDGF-β n-terminal peptide. The experiment in a line: Competition of RPtag large / PDGF-β n-terminal peptide binding by unlabeled peptide. As to conditions: 1 uM RPtag large, 1 uM labeled PDGF-β peptide, unlabeled competitor. The method, then:
An initial Kd was measured between RPtag(large) and the PDGF-β N-terminal peptide (FIG. 16). […] Next, competition experiments were performed using the mutant RPtag(small) peptide Nd2,P5A,E18A.
The direct binding (left) and competition studies (right) presented in FIG. 16 were performed as follows. The indicated concentration of RPtag large was incubated with 20 nM rhodamine labeled PDGF-β n-terminal peptide for 1 h at room temperature, and the fluorescence anisotropy was measured. The curves were fit with the equation f=y0+(ymax−y0)*(Ptot+x+Kd−sqrt((Ptot+x+Kd)^2−4*Ptot*x))/(2*Ptot), where y0 is the baseline anisotropy, ymax is the maximum anisotropy, Ptot is the fixed concentration of labeled peptide used, x is the variable concentration of protein used, and Kd is the measured Kd. […] The curves were fit empirically to a 4 parameter logistic regression. In both cases, the buffer was 50 mM Tris pH 8.0, 0.005% Tween20. Curves were fit in […] each, and the data was averaged for display. Points are mean±SEM (n=3).

Test [4] deals with RPtag (large) resin. The experiment in a line: Affinity-based precipitation/pull-down with RPtag (large) resin. It counts as binding, Thermoanaerobacter tengcongensis. The settings on record: 7 sequential pulldowns, 6 M guanidine hydrochloride washes. As for the experimental part:
The disclosed proteins and peptides were used in precipitation/pull-down assays. Specifically, rhodamine was tagged with the RPtag(small) Nd8Cd4 peptide and RPtag(large) was immobilized on a resin, as described above.
Briefly, 100 μL 1000 nM rhodamine labeled RPtag(small) peptide was incubated with 2.5 uL wet settled RPtag (large) resin generated as (as described above) in phosphate buffered saline (PBS; Gibco)+1% BSA+0.005% Tween 20 at 4° C. for 60 min with continuous orbital shaking. Samples were then washed 3× with 500 μL of the same buffer with no peptide to remove unbound peptide. Bound RPtag(small) peptides were then eluted with 100 μL 100 mM glycine pH 1.5+0.005% Tween20, and the pH raised by adding 1 μL 1 M borate pH 10.0. The amount eluted was calculated from the blank subtracted fluorescence of the elution versus the load. After each elution, resin was washed once with 500 μL 6M GdnHCl and once with 500 μL phosphate buffered saline (Gibco)+1% BSA+0.005% Tween 20, before repeating the assay.
Sequential precipitation/pulldown trials were performed with the rhodamine labelled RPtag(small) Nd8Cd4 peptide, and the RPtag(large)-resin. After binding and pull-down, the rhodamine-peptide was eluted in 100 mM glycine pH 1.5, the column was washed with water and 6 M guanidine hydrochloride, and then re-equilibrated with buffer (50 mM Tris pH 8.0, 10 mM EDTA). […]

As for “KIANFIPAELKLITKANVQ [Nd2, p5a, e18a, KIANFIPAELKLITKANVQ]”, the “pH of relative maximum affinity” value in test [1] is given as around 8 pH. Moreover, in test [2], the “elution behaviour with 100 mM Tris pH 8.0, 3 M imidazole” value was “diffuse band”. Besides, the “disruption of RPtag(large) binding to PDGF-β N-terminal peptide” value in test [3] is “could be disrupted”.

Take PAELKLITK [Nd8, Cd4, PAELKLITK]: the “pH of relative maximum affinity” value in test [1] is around 8 pH. Also, the “elution behaviour with 100 mM Tris pH 8.0, 3 M imidazole” value in test [2] is reported as “eluted as a tight band”. Besides, the “binding capacity over sequential pulldowns” value in test [4] was “little to no loss of binding capacity”.
